Assay results: ChEMBL document CHEMBL1146264, “Estrogen receptor beta ligands: design and synthesis of new 2-phenyl-isoindole-1,3-diones” (Bioorg Med Chem Lett, 2007)

Columns and labels:
[1] = molecular target: T1, Estrogen receptor (Homo sapiens, UniProt P03372)
T1 sequence (P03372 whole entry): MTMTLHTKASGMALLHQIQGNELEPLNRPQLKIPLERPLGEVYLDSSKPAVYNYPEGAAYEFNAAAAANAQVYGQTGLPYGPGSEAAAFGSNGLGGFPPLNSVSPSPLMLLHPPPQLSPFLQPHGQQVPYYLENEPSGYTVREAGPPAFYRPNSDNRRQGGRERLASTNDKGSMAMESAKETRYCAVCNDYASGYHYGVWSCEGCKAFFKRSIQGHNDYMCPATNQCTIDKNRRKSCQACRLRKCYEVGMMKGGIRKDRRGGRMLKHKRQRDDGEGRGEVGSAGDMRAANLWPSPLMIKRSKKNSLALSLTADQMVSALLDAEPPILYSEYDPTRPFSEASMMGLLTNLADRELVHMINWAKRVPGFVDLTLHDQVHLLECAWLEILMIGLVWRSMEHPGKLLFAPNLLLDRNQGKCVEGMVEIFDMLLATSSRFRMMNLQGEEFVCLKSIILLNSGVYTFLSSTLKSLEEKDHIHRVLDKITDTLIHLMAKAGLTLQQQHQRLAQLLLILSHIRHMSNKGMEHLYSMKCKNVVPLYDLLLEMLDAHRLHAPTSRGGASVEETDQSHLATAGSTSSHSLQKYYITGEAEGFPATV
Description: Inhibition of human LBD of ERalpha

[2] = molecular target: Estrogen receptor beta (Homo sapiens, UniProt Q92731)
Sequence of Estrogen receptor beta (Q92731 whole entry, the tested form may be a part): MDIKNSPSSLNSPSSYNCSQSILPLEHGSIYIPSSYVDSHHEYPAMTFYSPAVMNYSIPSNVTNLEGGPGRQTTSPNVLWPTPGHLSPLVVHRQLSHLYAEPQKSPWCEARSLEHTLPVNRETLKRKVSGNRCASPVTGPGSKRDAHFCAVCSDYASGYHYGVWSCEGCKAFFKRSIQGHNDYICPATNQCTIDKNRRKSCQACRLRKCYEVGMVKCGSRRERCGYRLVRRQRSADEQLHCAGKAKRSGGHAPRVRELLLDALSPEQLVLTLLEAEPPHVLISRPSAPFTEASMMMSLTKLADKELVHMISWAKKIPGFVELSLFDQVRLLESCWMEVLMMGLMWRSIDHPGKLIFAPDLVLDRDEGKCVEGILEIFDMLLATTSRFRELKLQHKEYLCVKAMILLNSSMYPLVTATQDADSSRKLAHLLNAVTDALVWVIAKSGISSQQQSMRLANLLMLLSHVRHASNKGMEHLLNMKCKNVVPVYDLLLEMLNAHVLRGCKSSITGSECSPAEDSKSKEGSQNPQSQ
Description: Inhibition of human LBD of ERbeta

[3] = species on record: Homo sapiens; test: Selectivity for human LBD of ERbeta over human LBD of ERalpha

Row | SMILES | IC50 [1] [nM] | IC50 [2] [nM] | Ratio IC50 [3]
1 | O=C1c2ccc(O)cc2C(=O)N1c1cccc(O)c1 | 2900 | > 5000 | –
2 | Cc1cc(O)ccc1N1C(=O)c2ccc(O)cc2C1=O | 802 | 2810 | 4
3 | COc1ccc(N2C(=O)c3ccc(O)cc3C2=O)cc1 | 3300 | > 5000 | –
4 | O=C1c2ccc(O)cc2C(=O)N1c1ccc(O)cc1[N+](=O)[O-] | 21 | 92 | 4
5 | COc1ccc(N2C(=O)c3ccc(O)cc3C2=O)c(OC)c1 | 2470 | > 5000 | –
6 | O=C1c2ccc(O)cc2C(=O)N1c1ccc(O)cc1 | 84 | 1980 | 24
7 | O=C1c2ccc(O)cc2C(=O)N1c1ccc(O)c2ccccc12 | 2640 | 560 | 0.2
8 | COc1ccc(N2C(=O)c3ccc(O)cc3C2=O)c([N+](=O)[O-])c1 | > 5000 | > 5000 | –
9 | O=C1c2cc(O)cc(Br)c2C(=O)N1c1ccc(O)cc1 | 36 | 1620 | 45
10 | O=C1c2ccc(O)cc2C(=O)N1c1cccc2c(O)cccc12 | 802 | 2810 | 4
11 | COc1cc(Br)c2c(c1)C(=O)N(c1ccc(O)cc1)C2=O | > 5000 | > 5000 | –

Results, then the compound that gave them:

Row | IC50 [1] [nM] | IC50 [2] [nM] | Ratio IC50 [3] | SMILES
12 | > 5000 | > 5000 | – | O=C1c2ccc(O)cc2C(=O)N1[C@H]1CC[C@H](O)CC1
13 | 2700 | > 5000 | – | O=C1c2ccc(O)cc2C(=O)N1c1ccccc1
14 | 53 | 339 | 6 | O=C1c2ccc(O)cc2C(=O)N1c1ccc(O)cc1F
15 | > 5000 | > 5000 | – | O=C1c2ccc(O)cc2C(=O)N1c1cc(O)cc(O)c1
16 | > 10000 | > 10000 | – | O=C1c2ccccc2C(=O)N1c1ccc(O)cc1
